{"source": "ChEMBL document CHEMBL1159059", "about": "“Fluoroalkene modification of mercaptoacetamide-based histone deacetylase inhibitors” (Bioorg Med Chem, 2010)"}
{"target": "Histone deacetylase", "assay": "Inhibition of HDAC in human HeLa cell nuclear extract by fluorescence assay", "assay_type": "cell-based", "units": {"IC50": "µM"}}
{"compound": "O=C(CCCCC/C=C(\\F)CS)Nc1ccccc1", "IC50": 0.36}
{"compound": "O=C(CCCC/C=C(\\F)CS)Nc1ccccc1", "IC50": 0.51}
{"compound": "O=C(NCCCCC/C=C(\\F)CS)c1ccccc1", "IC50": 0.29}
